Measurements taken from patent US8822146B2, “Derivatization of biomolecules by covalent coupling of non-cofactor compounds using methyltransferases” (Vilnius University, priority 2009, dated 2014).

Columns and labels:
M.Hhal = M.Hhal (Haemophilus parahaemolyticus, UniProt P05102); experiment: DNA protection assay: pUC-618 fragment modified with aldehyde in the presence of M.Hhal, then R.Hin6I cleavage; type: biochemical; conditions: 800 mM acetaldehyde, 50 nM M.Hhal, 100 nM pUC-618, 1 hour, room temperature
M.Hhal, sequence (P05102 whole entry, the tested form may be a part): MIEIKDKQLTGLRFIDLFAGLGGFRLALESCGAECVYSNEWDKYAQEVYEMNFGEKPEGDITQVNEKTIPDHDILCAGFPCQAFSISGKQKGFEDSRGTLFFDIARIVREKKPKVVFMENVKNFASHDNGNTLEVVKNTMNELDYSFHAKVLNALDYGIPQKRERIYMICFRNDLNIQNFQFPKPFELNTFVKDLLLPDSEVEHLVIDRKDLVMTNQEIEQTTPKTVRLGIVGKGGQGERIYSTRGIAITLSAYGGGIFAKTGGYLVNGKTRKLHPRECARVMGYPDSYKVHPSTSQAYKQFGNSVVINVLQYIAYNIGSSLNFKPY
Experimental: A 618 bp fragment of plasmid […] (pUC-618), which contains a single target site for M.Hhal, was used as a DNA substrate. pUC-618 was prepared by PCR amplification of the pUC19 template (Fermentas Life Sciences) using Dir (5′-[…]) (SEQ ID No:11) and Rev (5′-[…]) (SEQ ID No:12) primers and Taq DNA Polymerase (Fermentas Life Sciences). The PCR fragment was purified by Sephacryl S-400 (GE Healthcare) following the precipitation by ethanol. pUC-618 contains a single target site for M.Hhal.

M.Sssl = M.Sssl (Spiroplasma monobiae, UniProt P15840); conditions: 13 mM formaldehyde, 500 nM M.Sssl, 100 nM pUC-618, 1 hour, room temperature
M.Sssl, sequence (P15840 whole entry): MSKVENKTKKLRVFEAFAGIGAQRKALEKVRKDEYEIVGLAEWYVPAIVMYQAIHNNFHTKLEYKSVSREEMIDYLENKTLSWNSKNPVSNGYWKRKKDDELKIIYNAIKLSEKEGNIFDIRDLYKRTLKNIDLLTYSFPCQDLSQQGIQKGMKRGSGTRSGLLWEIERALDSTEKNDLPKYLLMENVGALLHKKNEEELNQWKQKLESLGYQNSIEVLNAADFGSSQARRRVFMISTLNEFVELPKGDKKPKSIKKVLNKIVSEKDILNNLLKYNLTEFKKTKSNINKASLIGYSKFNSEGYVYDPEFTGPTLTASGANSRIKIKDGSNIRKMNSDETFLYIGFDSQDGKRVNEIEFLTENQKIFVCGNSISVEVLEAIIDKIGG

M.Hpall = M.Hpall (Haemophilus parainfluenzae, UniProt P15446); conditions: 13 mM formaldehyde, 1000 nM M.Hpall, 100 nM pUC-618, 1 hour, room temperature
M.Hpall, sequence (P15446 whole entry): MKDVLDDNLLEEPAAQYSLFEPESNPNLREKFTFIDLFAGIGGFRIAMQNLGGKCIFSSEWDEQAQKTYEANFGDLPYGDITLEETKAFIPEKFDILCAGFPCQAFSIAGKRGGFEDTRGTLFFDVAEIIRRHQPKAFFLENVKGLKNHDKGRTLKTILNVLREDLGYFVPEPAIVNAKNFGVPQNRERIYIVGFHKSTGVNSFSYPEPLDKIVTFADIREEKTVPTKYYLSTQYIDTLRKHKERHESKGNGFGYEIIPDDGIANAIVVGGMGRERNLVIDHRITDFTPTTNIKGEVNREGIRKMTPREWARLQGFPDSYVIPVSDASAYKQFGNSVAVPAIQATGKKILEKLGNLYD

SMILES: CC=O [acetaldehyde]
- resistance of the GCGC site to R.Hin6I cleavage (M.Hhal): nearly fully

SMILES: C=O [formaldehyde]
- resistance of the GCGC site to cleavage with R.Hin6I (M.Sssl): 70%
- resistance of the CCGG sites to cleavage with R.Hpall (M.Hpall): 70%
